# Test results: patent publication US8329676B2, “Cycloalkane-containing sphingosine 1-phosphate agonists” (University of Virginia Patent Foundation, priority 2005, dated 2012)
# Legend:
# Heart rate assay = assay type: in vivo; conditions: mice, intravenous, 3 mg/kg (FIG. 2)
# Protocol: In the assay the test compound was administered via IV Dosing and the vehicle was 2% cyclodextrin.
# Mice were dosed with VPC01091 (intravenous, 3 mg/kg) or vehicle (2% hydroxypropyl beta-cyclodextrin) and heart rate measured at the indicated times post dosing. Heart rate was captured in unrestrained, conscious animals using the ECGenie™ system.
# blood lymphocytes = assay: Lymphopenia assay; assay type: in vivo, mice
# Protocol: Pro-drug compounds (i.e., primary alcohols such as VPC01091) are dissolved in 2% hydroxypropyl beta-cyclodextrin and introduced into mice by oral gavage at doses from 0.01 to 30 mg/kg body weight. After 24 hours (or multiples thereof), the mice are lightly anesthetized and ca. 0.1 ml of blood is drawn from the orbital sinus. The number of lymphocytes (in thousands per microliter of blood; normal is 4-11) is determined using a Hemavet blood analyzer. In the histogram showing the four isomers of VPC01091, the 100% value for the vehicle treated mouse was 7.5 at 24 hours; at 96 hours it was 5. There were three mice/group, the strain was mixed sv129×C57BL/6. Active compounds (e.g., VPC01211) are dissolved in acidified DMSO at 20 mM, and diluted 1:20 into 2% hydroxypropyl beta-cyclodextrin in water with mixing. This solution is introduced into mice by intraperitoneal (i.p.) injection at doses of 0.01-10 mg/kg body weight.
# FIG. 3 describes total blood lymphocyte count following single dose of VPC01091 or vehicle. […] Five mice per group, male, 10-11 week old sv129/C57B16 strain.
# A dose response curve for VPC01091 in the lymphopenia assay is given as FIG. 4. FIG. 4 graphically summarizes oral administration (gavage) of VPC01091 in 2% hydroxypropyl beta-cyclodextrin, 3 mice per group (same strain as in FIG. 3).
# This phosphorylation of these compounds is thought to be catalyzed in vivo by sphingosine kinase type 2 (SPHK2), which is encoded by the SPHK2 gene in mice.
# human S1P1 receptor = biological target: T1, human S1P1 receptor (Homo sapiens, UniProt P21453); assay: GTPγS-35 binding assay, S1P1; assay type: biochemical; conditions: relative to S1P (FIG. 6)
# T1 construct: expressed in transfected cells; host or cells: HEK293T (crude microsomes)
# T1 sequence (P21453 whole entry): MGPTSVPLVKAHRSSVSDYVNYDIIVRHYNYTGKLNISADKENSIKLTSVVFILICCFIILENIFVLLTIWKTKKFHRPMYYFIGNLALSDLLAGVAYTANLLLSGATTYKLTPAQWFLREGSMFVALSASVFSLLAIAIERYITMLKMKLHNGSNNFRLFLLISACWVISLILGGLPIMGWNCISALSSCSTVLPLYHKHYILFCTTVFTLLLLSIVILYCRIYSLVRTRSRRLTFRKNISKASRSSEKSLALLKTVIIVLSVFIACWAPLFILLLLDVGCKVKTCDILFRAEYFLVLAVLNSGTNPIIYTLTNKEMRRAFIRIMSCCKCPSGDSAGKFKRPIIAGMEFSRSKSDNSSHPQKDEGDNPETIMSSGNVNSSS
# T1 sequence (P04899 2-355 partner limits assumed): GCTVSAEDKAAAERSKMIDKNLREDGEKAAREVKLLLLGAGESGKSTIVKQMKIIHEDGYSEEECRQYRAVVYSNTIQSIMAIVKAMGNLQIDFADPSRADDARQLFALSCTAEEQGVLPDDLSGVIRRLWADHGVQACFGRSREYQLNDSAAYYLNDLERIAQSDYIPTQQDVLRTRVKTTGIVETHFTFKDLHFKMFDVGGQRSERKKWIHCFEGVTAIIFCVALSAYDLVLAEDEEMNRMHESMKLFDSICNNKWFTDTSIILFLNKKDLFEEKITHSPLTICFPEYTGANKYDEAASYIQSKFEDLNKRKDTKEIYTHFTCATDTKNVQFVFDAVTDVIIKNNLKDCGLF
# T1 sequence (P62873 2-340 partner limits assumed): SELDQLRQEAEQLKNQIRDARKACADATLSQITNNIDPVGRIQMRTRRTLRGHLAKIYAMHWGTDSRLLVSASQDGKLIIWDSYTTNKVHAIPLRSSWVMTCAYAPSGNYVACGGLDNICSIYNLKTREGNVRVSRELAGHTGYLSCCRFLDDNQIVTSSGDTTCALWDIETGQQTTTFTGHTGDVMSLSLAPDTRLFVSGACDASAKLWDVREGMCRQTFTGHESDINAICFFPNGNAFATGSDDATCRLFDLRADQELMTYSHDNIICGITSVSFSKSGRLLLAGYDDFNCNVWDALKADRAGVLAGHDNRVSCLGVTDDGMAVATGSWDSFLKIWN
# T1 sequence (P59768 2-68 partner limits assumed): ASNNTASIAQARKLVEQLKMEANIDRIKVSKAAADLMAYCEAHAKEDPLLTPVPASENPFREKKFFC
# Protocol: This assay illustrates agonist activation of G protein coupled receptors (GPCRs) in isolation. The assay forces expression concomitantly of a recombinant GPCR (e.g., the S1P1-5 receptor) and each of the three subunits (typically, alphai2, beta1, gamma2) of a heterotrimeric G protein in a HEK293T cell by transfecting the cell with four plasmid DNAs encoding the respective proteins. About 60 hours after transfection the cells are harvested, opened, and the nucleus discarded. This allows for the preparation of a crude microsome from the remainder. Agonist (e.g., S1P) stimulation of the receptor-G protein complex on the microsomes results in the exchange of GTP for GDP on the alpha subunit in a dose-dependent manner. To detect the GTP-bound alpha subunit, we use a GTP analog (GTPγS-35), which is a radionuclide (sulfur-35) labeled phosphothionate, that is not hydrolyzed to GDP. The microsomes with the adherent G proteins are collected by filtration and the bound GTPγS-35 quantified in a liquid scintillation counter. […] Antagonist activity is detected as rightward shifts in the agonist dose-response curve in the presence of a fixed amount of antagonist. If the antagonist behaves competitively, the affinity of the receptor/antagonist pair (K1) can be determined.
# human S1P2 receptor [1] = biological target: T2, human S1P2 receptor (Homo sapiens, UniProt O95136); assay: GTPγS-35 binding assay, S1P2; assay type: biochemical; design: expressed in transfected cells; host or cells: HEK293T (crude microsomes); conditions: FIG. 8
# T2 sequence (O95136 whole entry): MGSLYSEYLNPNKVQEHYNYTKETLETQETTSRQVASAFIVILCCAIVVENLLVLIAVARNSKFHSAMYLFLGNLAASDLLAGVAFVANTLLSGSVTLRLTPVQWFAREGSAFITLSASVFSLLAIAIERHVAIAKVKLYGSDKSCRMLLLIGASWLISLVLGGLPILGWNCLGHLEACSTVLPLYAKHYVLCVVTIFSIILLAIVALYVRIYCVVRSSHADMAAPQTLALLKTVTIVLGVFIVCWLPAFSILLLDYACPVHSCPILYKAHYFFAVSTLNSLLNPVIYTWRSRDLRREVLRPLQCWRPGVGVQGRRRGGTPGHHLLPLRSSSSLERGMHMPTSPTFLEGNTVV
# Text: FIG. 8 graphically illustrates the results of a broken cell GTPγ^35S binding assay for the human S1P2 receptor. Compound ‘CA5-P’ is VPC01211. Compounds CA6-P and CA4-P are the corresponding cyclohexyl and cyclobutyl compounds. The ordinate represents percent GTPγ^35S binding and the abscissa represents log molar concentration of lipid.
# (§1) This assay illustrates agonist activation of G protein coupled receptors (GPCRs) in isolation. The assay forces expression concomitantly of a recombinant GPCR (e.g., the S1P1-5 receptor) and each of the three subunits (typically, alphai2, beta1, gamma2) of a heterotrimeric G protein in a HEK293T cell by transfecting the cell with four plasmid DNAs encoding the respective proteins. About 60 hours after transfection the cells are harvested, opened, and the nucleus discarded. This allows for the preparation of a crude microsome from the remainder. […] The microsomes with the adherent G proteins are collected by filtration and the bound GTPγS-35 quantified in a liquid scintillation counter. […] Antagonist activity is detected as rightward shifts in the agonist dose-response curve in the presence of a fixed amount of antagonist. If the antagonist behaves competitively, the affinity of the receptor/antagonist pair (K1) can be determined.
# human S1P3 receptor [2] = biological target: T3, human S1P3 receptor (Homo sapiens, UniProt Q99500); assay: Schild plot of S1P dose response curves at S1P3; assay type: biochemical; design: expressed in transfected cells; host or cells: hamster CHO-K1, clonal population; conditions: FIGS. 12-14
# T3 sequence (Q99500 whole entry): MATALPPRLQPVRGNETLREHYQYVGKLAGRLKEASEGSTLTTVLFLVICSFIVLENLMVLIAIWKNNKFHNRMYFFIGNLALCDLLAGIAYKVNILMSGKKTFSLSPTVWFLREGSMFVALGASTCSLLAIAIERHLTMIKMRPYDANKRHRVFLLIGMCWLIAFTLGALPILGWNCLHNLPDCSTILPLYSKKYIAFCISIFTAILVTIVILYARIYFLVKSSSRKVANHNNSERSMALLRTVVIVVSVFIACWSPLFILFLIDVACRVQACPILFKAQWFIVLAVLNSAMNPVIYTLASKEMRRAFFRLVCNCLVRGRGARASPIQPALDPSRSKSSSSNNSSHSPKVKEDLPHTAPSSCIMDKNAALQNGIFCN
# Text: FIG. 12 is an illustration of a Schild plot for the results of S1P dose response curves at the human S1P3 receptor, at the indicated concentrations of test compound VPC01222.
# FIG. 13 is an illustration of a Schild plot for the results of S1P dose response curves at the human S1P3 receptor, at the indicated concentrations of test compound VPC01211.
# FIG. 14 is an illustration of a Schild plot for the results of S1P dose response curves at the human S1P3 receptor, at the indicated concentrations of test compound VPC01214.
# as §1, with “discarded.” for “discarded. This allows for the preparation of a crude microsome from the remainder.”
# human S1P3 receptor [3] = biological target: T3, human S1P3 receptor; assay: Calcium mobilization assay in T24 cells overexpressing S1P3; assay type: cell-based; design: expressed in transfected cells; conditions: 10 μM test compound, FIG. 15
# Protocol: FIG. 15 is an illustration of the result of a calcium mobilization assay in T24 cells overexpressing the human S1P3 receptor in response to […] S1P in the presence of 10 μM VPC01211.
# human S1P3 receptor [4] = biological target: T3, human S1P3 receptor; assay: Calcium mobilization assay, CHO-K1 cells expressing S1P3; assay type: cell-based; design: expressed in transfected cells; host or cells: hamster CHO-K1, clonal population; conditions: FIG. 9
# Protocol: FIG. 9 graphically illustrates the results of a calcium mobilization assay using CHO-K1 cells expressing recombinant human S1P3 receptor.
# (§2) To measure calcium mobilization in response to agonist stimulation, cells were plated onto a 96 well plate, loaded with the calcium sensing dye Fluo-4AM and cells exposed to various concentrations of agonist for 3-5 minutes. Changes in fluorescence, which correlate with intracellular calcium mobilization, are detected using a FlexStation fluorimeter. Each agonist concentration was tested in triplicate.
# human S1P4 receptor = biological target: T4, human S1P4 receptor (Homo sapiens, UniProt O95977); assay: GTPγS-35 binding assay, S1P4; assay type: biochemical; conditions: FIG. 10
# T4 construct: expressed in transfected cells; host or cells: HEK293T (crude microsomes)
# T4 sequence (O95977 whole entry): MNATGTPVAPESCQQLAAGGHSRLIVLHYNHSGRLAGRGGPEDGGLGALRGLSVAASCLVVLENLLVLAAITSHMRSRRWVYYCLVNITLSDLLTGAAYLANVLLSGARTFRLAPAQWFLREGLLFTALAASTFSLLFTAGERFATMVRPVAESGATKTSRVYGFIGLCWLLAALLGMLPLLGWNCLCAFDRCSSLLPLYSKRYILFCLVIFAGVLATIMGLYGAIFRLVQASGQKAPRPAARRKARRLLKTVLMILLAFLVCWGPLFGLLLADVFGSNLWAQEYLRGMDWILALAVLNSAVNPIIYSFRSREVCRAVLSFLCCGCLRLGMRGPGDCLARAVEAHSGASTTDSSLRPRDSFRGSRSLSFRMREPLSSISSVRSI
# T4 sequence (P04899 2-355 partner limits assumed): as the sequence (P04899 2-355 partner limits assumed) above
# T4 sequence (P62873 2-340 partner limits assumed): as the sequence (P62873 2-340 partner limits assumed) above
# T4 sequence (P59768 2-68 partner limits assumed): as the sequence (P59768 2-68 partner limits assumed) above
# Text: FIG. 10 graphically illustrates the results of a broken cell GTPγ^35S binding assay for the human S1P4 receptor. Compound ‘CA5-P’ is VPC01211. Compounds CA6-P and CA4-P are the corresponding cyclohexyl and cyclobutyl compounds.
# as §1, with “remainder. Agonist (e.g., S1P) stimulation of the receptor-G protein complex on the microsomes results in the exchange of GTP for GDP on the alpha subunit in a dose-dependent manner.” for “remainder.”
# [5] = biological target: T5, human S1P type 3 (S1P3) receptor (Homo sapiens, UniProt Q99500); assay: GTPγS-35 binding assay, S1P3; assay type: biochemical
# T5 construct: expressed in transfected cells; host or cells: HEK293T (crude microsomes)
# T5 sequence (Q99500 whole entry): as the sequence (Q99500 whole entry) above
# Protocol: The assay forces expression concomitantly of a recombinant GPCR (e.g., the S1P1-5 receptor) and each of the three subunits (typically, alphai2, beta1, gamma2) of a heterotrimeric G protein in a HEK293T cell by transfecting the cell with four plasmid DNAs encoding the respective proteins. About 60 hours after transfection the cells are harvested, opened, and the nucleus discarded. This allows for the preparation of a crude microsome from the remainder. Agonist (e.g., S1P) stimulation of the receptor-G protein complex on the microsomes results in the exchange of GTP for GDP on the alpha subunit in a dose-dependent manner. To detect the GTP-bound alpha subunit, we use a GTP analog (GTPγS-35), which is a radionuclide (sulfur-35) labeled phosphothionate, that is not hydrolyzed to GDP. The microsomes with the adherent G proteins are collected by filtration and the bound GTPγS-35 quantified in a liquid scintillation counter. The assay yields relative potency (EC50 values) and maximum effect (efficacy, Emax). Antagonist activity is detected as rightward shifts in the agonist dose-response curve in the presence of a fixed amount of antagonist. If the antagonist behaves competitively, the affinity of the receptor/antagonist pair (K1) can be determined.
# human S1P2 receptor [6] = biological target: T2, human S1P2 receptor; assay: Calcium mobilization assay, CHO-K1 cells expressing S1P2; assay type: cell-based; design: expressed in transfected cells; host or cells: hamster CHO-K1, clonal population; conditions: FIG. 7
# Protocol: FIG. 7 graphically illustrates the results of a calcium mobilization assay using CHO-K1 cells expressing recombinant human S1P2 receptor. […] The ordinate represents percent maximal calcium mobilization and the abscissa represents log molar concentration of lipid.
# as §2
# FIG. 7: CHOK1 cells transfected with S1P2 receptor DNA
# human S1P5 receptor = biological target: T6, human S1P5 receptor (Homo sapiens, UniProt Q9H228); assay: GTPγS-35 binding assay, S1P5; assay type: biochemical; conditions: FIG. 11
# T6 construct: expressed in transfected cells; host or cells: HEK293T (crude microsomes)
# T6 sequence (Q9H228 whole entry): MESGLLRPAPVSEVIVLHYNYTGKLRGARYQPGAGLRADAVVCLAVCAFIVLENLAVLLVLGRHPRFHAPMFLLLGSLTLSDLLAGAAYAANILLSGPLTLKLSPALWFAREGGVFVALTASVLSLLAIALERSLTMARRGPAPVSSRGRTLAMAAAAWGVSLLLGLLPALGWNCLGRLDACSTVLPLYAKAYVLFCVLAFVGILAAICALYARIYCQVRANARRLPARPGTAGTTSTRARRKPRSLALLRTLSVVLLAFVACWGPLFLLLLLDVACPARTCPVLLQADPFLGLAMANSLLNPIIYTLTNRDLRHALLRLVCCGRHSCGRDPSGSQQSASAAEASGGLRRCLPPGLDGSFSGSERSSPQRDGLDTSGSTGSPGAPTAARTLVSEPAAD
# T6 sequence (P04899 2-355 partner limits assumed): as the sequence (P04899 2-355 partner limits assumed) above
# T6 sequence (P62873 2-340 partner limits assumed): as the sequence (P62873 2-340 partner limits assumed) above
# T6 sequence (P59768 2-68 partner limits assumed): as the sequence (P59768 2-68 partner limits assumed) above
# Text: FIG. 11 graphically illustrates the results of a broken cell GTPγ^35S binding assay for the human S1P5 receptor. Compound ‘CA5-P’ is VPC01211. Compounds CA6-P and CA4-P are the corresponding cyclohexyl and cyclobutyl compounds.
# as §1, with “remainder. Agonist (e.g., S1P) stimulation of the receptor-G protein complex on the microsomes results in the exchange of GTP for GDP on the alpha subunit in a dose-dependent manner.” for “remainder.”
SMILES,effect on heart rate (Heart rate assay),"lymphopenia (total blood lymphocyte count) (blood lymphocytes; mice, oral gavage, single dose, 2% hydroxypropyl beta-cyclodextrin (FIG. 3))","duration of lymphopenia (blood lymphocytes; mice, single ED95 dose)","lymphopenia in mice without a functional SPHK2 gene (blood lymphocytes; single oral dose, 24 hours (FIG. 5))",agonist activity at the S1P1 receptor (human S1P1 receptor),activity at the S1P2 receptor (GTPγS binding) (human S1P2 receptor [1]),antagonism at S1P3 (rightward shifts in the S1P dose response curves) (human S1P3 receptor [2]),antagonism at S1P3 (rightward shift of S1P calcium response) (human S1P3 receptor [3]),activity at the S1P3 receptor (calcium mobilization) (human S1P3 receptor [4]),agonist activity at the S1P4 receptor (human S1P4 receptor),activity at the S1P3 receptor (GTPγS binding) [5],activity at the S1P2 receptor (calcium mobilization) (human S1P2 receptor [6]),agonist activity at the S1P5 receptor (human S1P5 receptor)
"CCCCCCCCc1ccc(C2CCC(N)(CO)C2)cc1 (stereo not shown) [VPC01091, (1-amino-3-(4-octylphenyl)cyclopentyl)methanol]",no effect on the heart rate,"profound, long lasting lymphopenia",lymphopenia for a week or more,no lymphopenia was observed,,,,,,,,,
"CCCCCCCCc1ccc(C2CCC(N)(COP(=O)(O)O)C2)cc1 (stereo not shown) [VPC01211, (1-amino-3-(4-octylphenyl)cyclopentyl)methyl dihydrogen phosphate]",,,,,partial agonists,inactive,surmountable antagonist,surmountable antagonism,inactive,full agonists,"negative, or inverse, agonists",inactive,partial agonists
